Measured values as given in publication PMC11640836, “Aminomethylmorpholino Nucleosides as Novel Inhibitors of PARP1 and PARP2: Experimental and Molecular Modeling Analyses of Their Selectivity and Mechanism of Action” (International Journal of Molecular Sciences, 2024).
Where two headings read alike, the source gives them in different places.

Legend:
[1] = target: T1, PARP2-DNA complex (Mus musculus, UniProt O88554); assay: AutoPARylation-induced dissociation of the PARP2-DNA complex (fluorescence anisotropy kinetics); assay type: biochemical, murine; conditions: 240 µM H2N-Mor-U(I) or 800 nM olaparib
T1 construct: made in house; host or cells: insect cells
T1 sequence (O88554 whole entry, one chain of several): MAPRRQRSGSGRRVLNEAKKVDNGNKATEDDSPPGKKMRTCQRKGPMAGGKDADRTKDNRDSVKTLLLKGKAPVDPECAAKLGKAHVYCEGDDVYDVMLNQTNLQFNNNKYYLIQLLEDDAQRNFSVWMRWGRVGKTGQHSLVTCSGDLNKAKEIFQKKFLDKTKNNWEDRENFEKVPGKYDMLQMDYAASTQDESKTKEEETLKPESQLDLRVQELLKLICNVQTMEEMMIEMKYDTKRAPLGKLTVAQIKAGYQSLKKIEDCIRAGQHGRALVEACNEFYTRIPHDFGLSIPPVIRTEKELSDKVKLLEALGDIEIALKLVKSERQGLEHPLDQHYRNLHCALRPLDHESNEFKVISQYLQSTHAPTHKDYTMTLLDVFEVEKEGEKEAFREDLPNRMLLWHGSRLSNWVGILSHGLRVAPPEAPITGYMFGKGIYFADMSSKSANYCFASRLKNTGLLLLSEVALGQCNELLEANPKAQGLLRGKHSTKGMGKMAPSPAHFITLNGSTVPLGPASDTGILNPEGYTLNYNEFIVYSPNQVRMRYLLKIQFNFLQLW
Protocol: (§1) Fluorescence anisotropy measurements of FAM-labeled DNA were performed in the absence and presence of various concentrations of PARP1/PARP2 with or without sub-saturating concentrations of an inhibitor. […] The averaged values were used for the final plot, and EC50 values were determined with MARS Data Analysis software version 3.00 (BMG LABTECH, Ortenberg, Germany). The data were plotted (F vs. C) and fitted to a four-parameter equation, F = F0 + (F∞ − F0)/[1 + (EC50/C)^n], where F is the measured fluorescence anisotropy of a solution containing the labeled DNA at a given concentration (C) of protein, F0 is the fluorescence anisotropy of the solution of the labeled DNA alone, F∞ is the fluorescence anisotropy of the labeled DNA saturated with the protein, EC50 is the concentration of the protein where F − F0 = (F∞ − F0)/2, and n is the Hill coefficient, which denotes the slope of the nonlinear curve. The apparent rate constants (kobs values) of dissociation of the PARP1 (PARP2)-DNA complex during the PARylation reaction performed in the absence or presence of an inhibitor were estimated by fluorescence anisotropy measurements, as described previously. […] The kinetic data were fitted to an exponential curve to calculate kobs with MARS Data Analysis software. […]

[2] = target: T2, PARP2 (Mus musculus, UniProt O88554); assay: Steady-state kinetic analysis of the PARP2 enzymatic reaction; assay type: biochemical, murine
T2 construct: made in house; host or cells: insect cells
T2 sequence (O88554 whole entry): as the sequence (O88554 whole entry, one chain of several) above
Protocol: The four efficient inhibitors of PARP1 (compounds 8, 12, 13, and 14) were further examined by detailed kinetic experiments to determine the type of inhibition and the inhibition constants. […] The kinetics experiments of the PARylation reaction were performed at varied concentrations of the NAD^+ substrate and three–four different fixed concentrations of the inhibitor. The kinetic parameters of the reaction (Vmax and KM) were calculated by fitting the Michaelis–Menten equation to the kinetic data. The type of inhibition was determined by analyzing the dependences of Vmax and KM on the concentration of the inhibitor in linearizing coordinates (Figure S3). All the compounds had decreased Vmax and increased KM values as the inhibitor concentration increased (panels A−E), indicating a mixed type of inhibition, which was further evidenced by the double reciprocal plots of kinetic data (panel F). From these experiments, the inhibition constants reflecting the affinity of inhibitors to the NAD^+ binding pocket of free enzymes were determined (Table 2).
To determine the apparent maximum rate of enzymatic reaction (Vmax), Michaelis constant (KM), and possible inhibition mechanism, steady-state kinetic experiments were performed at […] fixed concentrations of the substrate, in the absence and presence of different fixed concentrations of the inhibitor. The standard reaction mixtures (10 μL) contained 100 μM, 300 μM, 500 μM, 1 mM, or 2 mM NAD^+; a tested PARP1/PARP2 inhibitor specified for each compound (Figure S3); the recombinant human enzyme PARP1 (200 nM) or murine PARP2 (800 nM); and reaction buffer components (specified in the previous subsection). The reaction was performed as described in the previous subsection. The raw data (kinetic curves) were obtained in three independent experiments and statistically processed with OriginPro 8.6.0 software. […]
F) Graphical representation in double reciprocal plots. […]
The Ki and Ki(2) values presented in Table 2 in the main text and Table S1 were calculated using the equations: […]

[3] = target: T2, PARP2; assay: PARP2 autopoly(ADP-ribosyl)ation (autoPARylation) enzyme assay with [32P]NAD+; assay type: biochemical, murine
Protocol: Human recombinant poly(ADP-ribose) polymerase 1 (PARP1) and murine poly(ADP-ribose) polymerase 2 (PARP2) were expressed in insect cells and purified as previously described. Radioactively labeled [^32P]NAD^+ was synthesized from [α-^32P]ATP, according to the previously developed method. The reaction of autopoly(ADP-ribosyl)ation was performed as follows. For PARP1, the reaction mixture contained 50 mM of Tris-HCl, a pH of 8.0, 10 mM of MgCl2, 150 mM of NaCl, 7 mM of β-mercaptoethanol, 2 A260/mL of activated DNA, 0.3 mM of [^32P]NAD^+, and 1 of the tested compounds. The reaction was initiated by adding PARP1 up to 200 nM, and the reaction mixtures were incubated at 37 °C for 2 min. For PARP2, the reaction mixture contained 50 mM of Tris-HCl, a pH of 8.0, 3 mM of spermine, 150 mM of NaCl, 7 mM of β-mercaptoethanol, 2 A260/mL of activated DNA, 0.6 mM of [^32P]NAD^+, and 1 of the tested compounds. The reaction was initiated by adding PARP2 up to 800 nM, and the reaction mixtures were incubated at 37 °C for 5 min. The tested compounds were added at six fixed concentrations, specified for each of them. The reaction was stopped by dropping 10 µL aliquots onto Whatman 1 filter papers soaked in 5% trichloroacetic acid (TCA). The filters were washed 4 times with 150 mL of 5% TCA and dried in the air after the removal of TCA with 90% ethanol. The introduction of radioactivity into the reaction product was quantified using a Typhoon FLA 9500 imager (GE Healthcare, Chicago, IL, USA). The half-maximal inhibitory concentration (IC50) values were determined using a six-point concentration response curve in three independent experiments.

[4] = target: T1, PARP2-DNA complex; assay: Fluorescence anisotropy titration of FAM-labeled gap-DNA with PARP2; assay type: binding, murine; conditions: 240 µM inhibitor
Protocol: as §1

[5] = target: T3, PARP1-DNA complex (Homo sapiens, UniProt P09874); assay: AutoPARylation-induced dissociation of the PARP1-DNA complex (fluorescence anisotropy kinetics); assay type: biochemical; conditions: 120 µM H2N-Mor-T or 400 nM olaparib
T3 construct: made in house; host or cells: insect cells
T3 sequence (P09874 whole entry, one chain of several): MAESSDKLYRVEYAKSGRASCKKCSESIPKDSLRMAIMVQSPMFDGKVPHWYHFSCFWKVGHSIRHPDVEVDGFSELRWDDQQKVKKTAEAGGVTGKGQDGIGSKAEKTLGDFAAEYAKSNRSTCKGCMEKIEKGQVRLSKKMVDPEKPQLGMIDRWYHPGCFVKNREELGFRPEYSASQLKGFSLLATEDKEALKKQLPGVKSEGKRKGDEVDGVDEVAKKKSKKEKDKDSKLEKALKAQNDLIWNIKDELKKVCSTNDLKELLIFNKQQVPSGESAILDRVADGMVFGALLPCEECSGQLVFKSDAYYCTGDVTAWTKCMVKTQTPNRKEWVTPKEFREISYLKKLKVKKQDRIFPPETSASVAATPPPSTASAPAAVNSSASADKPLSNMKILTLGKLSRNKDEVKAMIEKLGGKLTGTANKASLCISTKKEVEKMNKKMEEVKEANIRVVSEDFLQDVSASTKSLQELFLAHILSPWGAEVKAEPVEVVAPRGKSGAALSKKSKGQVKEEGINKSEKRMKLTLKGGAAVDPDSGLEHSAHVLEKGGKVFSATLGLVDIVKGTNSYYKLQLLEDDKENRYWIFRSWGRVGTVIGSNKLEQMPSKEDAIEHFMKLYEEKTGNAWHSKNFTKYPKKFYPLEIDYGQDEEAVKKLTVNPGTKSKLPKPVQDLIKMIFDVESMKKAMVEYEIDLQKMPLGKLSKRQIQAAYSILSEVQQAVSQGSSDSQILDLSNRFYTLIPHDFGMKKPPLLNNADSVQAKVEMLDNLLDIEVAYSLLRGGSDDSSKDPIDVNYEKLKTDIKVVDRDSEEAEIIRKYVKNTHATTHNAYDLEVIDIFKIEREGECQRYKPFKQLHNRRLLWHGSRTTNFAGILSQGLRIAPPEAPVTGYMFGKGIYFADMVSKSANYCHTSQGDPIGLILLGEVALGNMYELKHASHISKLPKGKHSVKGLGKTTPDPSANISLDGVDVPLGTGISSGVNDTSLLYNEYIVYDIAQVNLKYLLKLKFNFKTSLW
Protocol: as §1

[6] = target: T3, PARP1-DNA complex; assay: Fluorescence anisotropy titration of FAM-labeled gap-DNA with PARP1; assay type: binding; conditions: 120 µM inhibitor, absence vs presence
Protocol: as §1

SMILES | Inhibition of dissociation of the PARP2 complex with DNA ([1]; 0.4 mM NAD+) | Inhibition of dissociation of the PARP2 complex with DNA ([1]; 1.4 mM NAD+) | Type of inhibition ([2]; Vmax decreased, KM increased) | Ki ([2]; mixed-type inhibition, read-out: Ki (affinity for the free enzyme)) | Ki ([2]; read-out: Ki(2) (affinity for the enzyme complex with NAD+ substrate)) | IC50 ([3]; 0.6 mM [32P]NAD+, means ±SDs of three independent experiments, read-out: IC50, PARP2 activity in the autoPARylation reaction) | Effect of inhibitor on the stability of the PARP2–DNA complex [4] | Inhibition of dissociation of the PARP1 complex with DNA ([5]; 0.4 mM NAD+) | Inhibition of dissociation of the PARP1 complex with DNA ([5]; 1.4 mM NAD+) | Effect of inhibitor on EC50 of the PARP1–DNA complex [6] | IC50 [3]
NC[C@@H]1CNC[C@H](n2cc(I)c(=O)[nH]c2=O)O1 [Compound 14] | ~ 2 fold | ~ 1.5 fold | mixed-type inhibition | 120 ± 23 µM | 400 ± 70 µM | 63 ± 9 µM | No statistically significant effect | – | – | – | –
Cc1cn([C@H]2CNC[C@@H](CN)O2)c(=O)[nH]c1=O [Compound 8] | – | – | – | – | – | – | – | ~ 2 fold | ~ 1.5 fold | almost the same | 133 ± 8 µM
